Test results taken from patent publication US6914045B2, “Glycopeptide antibiotics” (Wyeth Holdings Corporation, priority 2001, dated 2005).

Experiments:
Experiment in all cases: in vitro antibacterial evaluation, MIC by broth dilution
Format in all cases: cell-based
[1] = tested on: Enterococcus sp.; conditions: broth dilution, 18 hours at 35° C.; for MIC Enterococcus faecalis (ATCC 29212): strain ATCC 29212; for MIC Enterococcus faecium (GC 2243): strain GC 2243; for MIC Enterococcus faecalis (GC 4552): strain GC 4552; for MIC Enterococcus faecalis (GC 4553): strain GC 4553; for MIC Enterococcus faecalis (GC 4554): strain GC 4554; for MIC Enterococcus faecium (GC 4556): strain GC 4556; for MIC Enterococcus faecium (GC 4557): strain GC 4557; for MIC Enterococcus avium (GC 4558): strain GC 4558; for MIC Enterococcus faecalis (GC 6189): strain GC 6189
Summary of the method: (§1)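 Step 1: dilute antibiotic across 64-0.06 μg/mL in Muller-Hinton II […]. Step 2: inoculate at 5×10^5 CFU/mL.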

[2] = tested on: Streptococcus sp.; conditions: broth dilution, 18 hours at 35° C.
Summary of the method: as §1

[3] = tested on: Staphylococcus sp.; conditions: broth dilution, 18 hours at 35° C.; for MIC Staphylococcus aureus (GC 1131): strain GC 1131; for MIC Staphylococcus aureus (ATCC 29213): strain ATCC 29213; for MIC Staphylococcus aureus (GC 3051): strain GC 3051; for MIC Staphylococcus aureus (GC 3053): strain GC 3053; for MIC Staphylococcus aureus (GC 4541): strain GC 4541; for MIC Staphylococcus aureus (GC 4542): strain GC 4542; for MIC Staphylococcus aureus (GC 4544): strain GC 4544; for MIC Staphylococcus aureus (GC 4545): strain GC 4545; for MIC Staphylococcus haemolyticus (GC 4546): strain GC 4546; for MIC Coagulase Negative Staphylococcus (GC 4547): strain GC 4547; for MIC Coagulase Negative Staphylococcus (GC 4548): strain GC 4548; for MIC Coagulase Negative Staphylococcus (GC 4549): strain GC 4549; for MIC Coagulase Negative Staphylococcus (GC 4551): strain GC 4551; for MIC Coagulase Negative Staphylococcus (GC 6257): strain GC 6257
Summary of the method: as §1

[4] = tested on: Escherichia coli; conditions: for MIC Escherichia coli (ATCC 25922): strain ATCC 25922, 18 hours at 35° C.; for MIC Escherichia coli (GC 4559): strain GC 4559, 18 hours at 35° C.
Summary of the method: as §1

[5] = Enterococcus faecalis (GC 2242)
[6] = Enterococcus faecalis (GC 2691)
[7] = Enterococcus faecalis (GC 3059)
[8] = Streptococcus agalactiae (GC 4564)
[9] = Streptococcus pneumoniae (ATCC 6301)
[10] = Streptococcus pneumoniae (GC 1894)
[11] = Streptococcus pneumoniae (GC 4565)
[12] = Streptococcus pyogenes (GC 4563)

CC(c1ccccc1)C1NC(=O)CNC(=O)C(CO)NC(=O)C(C(O)C2CNC(=N)N2C2OC(CO)C(O)C(O)C2O)NC(=O)C(C(O)C2CNC(=N)N2)NC(=O)C(Cc2ccc(OC3OC(CO)C(OC4OC5COC(c6ccc(S(C)(=O)=O)cc6)OC5C(O)C4O)C(O)C3O)cc2)NC1=O (centres unmarked) [Example 157]
64 µg/mL: MIC Enterococcus faecalis (GC 2242) [1, 5] | MIC Enterococcus faecium (GC 2243) ([1]; inoculum 5×10^5 CFU/mL) | MIC Enterococcus avium (GC 4558) ([1]; inoculum 5×10^5 CFU/mL) | MIC Enterococcus faecalis (GC 2242) ([1]; strain GC 2242) | MIC Enterococcus faecium (GC 2243) [1] | MIC Enterococcus avium (GC 4558) [1]
32 µg/mL: MIC Staphylococcus aureus (GC 1131) ([3]; inoculum 5×10^5 CFU/mL) | MIC Staphylococcus aureus (ATCC 29213) [3] | MIC Staphylococcus aureus (GC 1131) [3] | MIC Staphylococcus aureus (GC 3053) [3] | MIC Staphylococcus aureus (GC 4542) [3] | MIC Staphylococcus aureus (GC 4544) [3] | MIC Coagulase Negative Staphylococcus (GC 4551) [3]
4 µg/mL: MIC Streptococcus pneumoniae (ATCC 6301) [2, 9] | MIC Streptococcus pneumoniae (GC 1894) [2, 10] | MIC Streptococcus pneumoniae (GC 4565) [2, 11] | MIC Streptococcus pneumoniae (ATCC 6301) ([2]; strain ATCC 6301) | MIC Streptococcus pneumoniae (GC 1894) ([2]; strain GC 1894) | MIC Streptococcus pneumoniae (GC 4565) ([2]; strain GC 4565) | MIC Coagulase Negative Staphylococcus (GC 6257) [3]
>64 µg/mL: MIC Enterococcus faecalis (GC 2691) [1, 6] | MIC Enterococcus faecalis (GC 3059) [1, 7] | MIC Enterococcus faecalis (ATCC 29212) ([1]; inoculum 5×10^5 CFU/mL) | MIC Enterococcus faecalis (GC 4552) ([1]; inoculum 5×10^5 CFU/mL) | MIC Enterococcus faecalis (GC 4553) ([1]; inoculum 5×10^5 CFU/mL) | MIC Enterococcus faecalis (GC 4554) ([1]; inoculum 5×10^5 CFU/mL) | MIC Enterococcus faecium (GC 4556) ([1]; inoculum 5×10^5 CFU/mL) | MIC Enterococcus faecalis (GC 6189) ([1]; inoculum 5×10^5 CFU/mL) | MIC Enterococcus faecalis (ATCC 29212) [1] | MIC Enterococcus faecalis (GC 2691) ([1]; strain GC 2691) | MIC Enterococcus faecalis (GC 3059) ([1]; strain GC 3059) | MIC Enterococcus faecalis (GC 4552) [1] | MIC Enterococcus faecalis (GC 4553) [1] | MIC Enterococcus faecalis (GC 4554) [1] | MIC Enterococcus faecium (GC 4556) [1] | MIC Enterococcus faecalis (GC 6189) [1] | MIC Escherichia coli (ATCC 25922) [4] | MIC Escherichia coli (GC 4559) [4]
16 µg/mL: MIC Streptococcus agalactiae (GC 4564) [2, 8] | MIC Streptococcus agalactiae (GC 4564) ([2]; strain GC 4564) | MIC Staphylococcus aureus (GC 3051) [3] | MIC Staphylococcus aureus (GC 4541) [3] | MIC Staphylococcus aureus-SMITH (GC 4543) ([3]; strain GC 4543) | MIC Staphylococcus aureus (GC 4545) [3] | MIC Staphylococcus haemolyticus (GC 4546) [3] | MIC Coagulase Negative Staphylococcus (GC 4547) [3] | MIC Staphylococcus aureus-SMITH (GC 4543) ([3]; strain SMITH GC 4543)
8 µg/mL: MIC Enterococcus faecium (GC 4557) ([1]; inoculum 5×10^5 CFU/mL) | MIC Enterococcus faecium (GC 4557) [1] | MIC Streptococcus pyogenes (GC 4563) [2, 12] | MIC Streptococcus pyogenes (GC 4563) ([2]; strain GC 4563) | MIC Coagulase Negative Staphylococcus (GC 4548) [3] | MIC Coagulase Negative Staphylococcus (GC 4549) [3]

CC(=O)n1cc(C2OCC3OC(OC4C(CO)OC(Oc5ccc(CC6NC(=O)C(C(C)c7ccccc7)NC(=O)CNC(=O)C(CO)NC(=O)C(C(O)C7CNC(=N)N7C7OC(CO)C(O)C(O)C7O)NC(=O)C(C(O)C7CNC(=N)N7)NC6=O)cc5)C(O)C4O)C(O)C(O)C3O2)c2ccccc21 (centres unmarked) [Example 161]
0.5 µg/mL: MIC Streptococcus pneumoniae (ATCC 6301) [2, 9] | MIC Streptococcus pneumoniae (GC 4565) [2, 11] | MIC Streptococcus pneumoniae (ATCC 6301) ([2]; strain ATCC 6301) | MIC Streptococcus pneumoniae (GC 4565) ([2]; strain GC 4565)
>64 µg/mL: MIC Escherichia coli (ATCC 25922) [4] | MIC Escherichia coli (GC 4559) [4]
2 µg/mL: MIC Coagulase Negative Staphylococcus (GC 4548) [3] | MIC Coagulase Negative Staphylococcus (GC 4549) [3] | MIC Coagulase Negative Staphylococcus (GC 6257) [3] | MIC Escherichia coli (GC 4560) ([4]; strain GC 4560, 18 hours at 35° C.)
16 µg/mL: MIC Enterococcus faecalis (GC 2242) [1, 5] | MIC Enterococcus faecalis (GC 2691) [1, 6] | MIC Enterococcus faecalis (GC 3059) [1, 7] | MIC Enterococcus faecalis (ATCC 29212) ([1]; inoculum 5×10^5 CFU/mL) | MIC Enterococcus faecium (GC 2243) ([1]; inoculum 5×10^5 CFU/mL) | MIC Enterococcus faecalis (GC 4552) ([1]; inoculum 5×10^5 CFU/mL) | MIC Enterococcus faecalis (GC 4553) ([1]; inoculum 5×10^5 CFU/mL) | MIC Enterococcus faecalis (GC 4554) ([1]; inoculum 5×10^5 CFU/mL) | MIC Enterococcus faecium (GC 4556) ([1]; inoculum 5×10^5 CFU/mL) | MIC Enterococcus avium (GC 4558) ([1]; inoculum 5×10^5 CFU/mL) | MIC Enterococcus faecalis (GC 6189) ([1]; inoculum 5×10^5 CFU/mL) | MIC Enterococcus faecalis (ATCC 29212) [1] | MIC Enterococcus faecalis (GC 2242) ([1]; strain GC 2242) | MIC Enterococcus faecium (GC 2243) [1] | MIC Enterococcus faecalis (GC 2691) ([1]; strain GC 2691) | MIC Enterococcus faecalis (GC 3059) ([1]; strain GC 3059) | MIC Enterococcus faecalis (GC 4552) [1] | MIC Enterococcus faecalis (GC 4553) [1] | MIC Enterococcus faecalis (GC 4554) [1] | MIC Enterococcus faecium (GC 4556) [1] | MIC Enterococcus avium (GC 4558) [1] | MIC Enterococcus faecalis (GC 6189) [1]
4 µg/mL: MIC Staphylococcus aureus (ATCC 29213) [3] | MIC Staphylococcus aureus (GC 4541) [3] | MIC Staphylococcus aureus (GC 4542) [3] | MIC Staphylococcus aureus-SMITH (GC 4543) ([3]; strain GC 4543) | MIC Staphylococcus aureus (GC 4545) [3] | MIC Staphylococcus haemolyticus (GC 4546) [3] | MIC Coagulase Negative Staphylococcus (GC 4547) [3] | MIC Staphylococcus aureus-SMITH (GC 4543) ([3]; strain SMITH GC 4543)
0.12 µg/mL: MIC Streptococcus pneumoniae (GC 1894) [2, 10] | MIC Streptococcus pneumoniae (GC 1894) ([2]; strain GC 1894)
8 µg/mL: MIC Enterococcus faecium (GC 4557) ([1]; inoculum 5×10^5 CFU/mL) | MIC Enterococcus faecium (GC 4557) [1] | MIC Staphylococcus aureus (GC 1131) ([3]; inoculum 5×10^5 CFU/mL) | MIC Staphylococcus aureus (GC 1131) [3] | MIC Staphylococcus aureus (GC 3051) [3] | MIC Staphylococcus aureus (GC 3053) [3] | MIC Staphylococcus aureus (GC 4544) [3] | MIC Coagulase Negative Staphylococcus (GC 4551) [3]
1 µg/mL: MIC Streptococcus agalactiae (GC 4564) [2, 8] | MIC Streptococcus pyogenes (GC 4563) [2, 12] | MIC Streptococcus pyogenes (GC 4563) ([2]; strain GC 4563) | MIC Streptococcus agalactiae (GC 4564) ([2]; strain GC 4564)
